Patent US5852016A, “Quinoxaline derivatives useful in therapy” (Pfizer Inc., priority 1994, dated 1998)

Biological target: T1, glycine site of the NMDA receptor (Rattus norvegicus, UniProt P35439)
T1 construct: displace a selective glycine site radioligand from rat brain membranes; from tissue; host or cells: rat brain membranes
Experiment: Binding affinity for the glycine site of the NMDA receptor (test (a))
Conditions: displacement of selective glycine site radioligand ([3H]-L-689,560) from rat brain membranes
Description: (a) Binding affinity for the glycine site of the NMDA receptor
This may be measured by testing a compound's ability to displace a selective glycine site radioligand from rat brain membranes as described in Brit J Pharm (1991), 104, 74. In a variation of this method, thoroughly washed membrane protein is incubated with [^3 H]-L-689,560 for 90 minutes using tris-acetate buffer (pH 7.4). Displacement of the radioligand, using a range of test compound concentrations, is used to derive IC50 (50% inhibitory concentration) values.

Compound | IC50 [nM]
CS(=O)(=O)N(CC(=O)O)c1c(Cl)c(Cl)cc2[nH]c(=O)c(=O)[nH]c12 (racemic) [Example 70, (RS)-N-(Carboxymethyl)-N-(1,4-dihydro-6,7-dichloro-2,3-dioxoquinoxaline-5-yl)methanesulphonamide] | < 50
CCS(=O)(=O)Nc1c(Cl)c(Cl)cc2[nH]c(=O)c(=O)[nH]c12 [Example 1, N-(1,4-Dihydro-6,7-dichloro-2,3-dioxoguinoxalin-5-yl)ethanesulphonamide] | < 50
CS(=O)(=O)N(CCO)c1c(Cl)c(Cl)cc2[nH]c(=O)c(=O)[nH]c12 (racemic) [Example 17, (RS)-N-(f1,4-Dihydro-6,7-dichloro-2,3-dioxoquinoxaline-5-yl)-N-(2-hydroxyethyl)methanesulphonamide] | < 50
CN(c1c(Cl)c(Cl)cc2[nH]c(=O)c(=O)[nH]c12)S(C)(=O)=O [Example 8] | < 50
Cn1c(CN(c2c(Cl)c(Cl)cc3[nH]c(=O)c(=O)[nH]c23)S(C)(=O)=O)nc2ccccc21 [Example 56] | < 50
CCc1c(Cl)cc2[nH]c(=O)c(=O)[nH]c2c1N(CCO)S(C)(=O)=O [Example 40] | < 50
CS(=O)(=O)N(CCCO)c1c(Cl)c(Cl)cc2[nH]c(=O)c(=O)[nH]c12 [Example 29] | < 50
